Measurements taken from patent US5210193A, “Piperazine derivatives” (American Cyanamid Company, priority 1990, dated 1993).
In brackets after ≈: the same amount, converted by molar mass. Where two headings read alike, the source gives them in different places.

Experiments:
Assay in all cases: in vitro antibacterial MIC, agar plate dilution
Type in all cases: cell-based
Citrobacter div. K 82-24 = conditions: Citrobacter, DIV.K8224, 18 h, 35° C., read-out: MIC
How it was run: (§1)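 MIC, mcg/ml: lowest concentration with no visible growth after 18 h incubation at 35° C. Mueller-Hinton agar dilution plates; ~10^4 CFU inoculum via Steers replicating device.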

[1] = system: Enterobacter cloacae K 84-10; conditions: Enterobacter cloacae, K8410, 18 h, 35° C., read-out: MIC
How it was run: as §1

[2] = system: Enterobacter cloacae MOR 84-30; conditions: Enterobacter cloacae, MOR8430, 18 h, 35° C., read-out: MIC
How it was run: as §1

[3] = system: Enterobacter cloacae VGH 84-39; conditions: Enterobacter cloacae, VGH8439, 18 h, 35° C., read-out: MIC
How it was run: as §1

[4] = system: Escherichia coli CMC 84-11; conditions: Escherichia coli, CMC8411, 18 h, 35° C., read-out: MIC
How it was run: as §1

[5] = system: Escherichia coli CMC 84-50; conditions: Escherichia coli, CMC8450, 18 h, 35° C., read-out: MIC
How it was run: as §1

Escherichia coli LL 311 = conditions: Escherichia coli, LL311, 18 h, 35° C., read-out: MIC
How it was run: as §1

[6] = system: Escherichia coli MOR 84-20; conditions: Escherichia coli, MOR8420, 18 h, 35° C., read-out: MIC
How it was run: as §1

[7] = system: Escherichia coli VGH 84-19; conditions: Escherichia coli, VGH8419, 18 h, 35° C., read-out: MIC
How it was run: as §1

[8] = system: Klebsiella pneumoniae IO 83-5; conditions: Klebsiella pneumoniae, IO835, 18 h, 35° C., read-out: MIC
How it was run: as §1

[9] = system: Klebsiella pneumoniae MOR 84-24; conditions: Klebsiella pneumoniae, MOR8424, 18 h, 35° C., read-out: MIC
How it was run: as §1

[10] = system: Morganella morganii CMC 84-37; conditions: Morganella morganii, CMC8437, 18 h, 35° C., read-out: MIC
How it was run: as §1

[11] = system: Morganella morganii CMC 84-38; conditions: Morganella morganii, CMC8438, 18 h, 35° C., read-out: MIC
How it was run: as §1

[12] = system: Morganella morganii MOR 84-45; conditions: Morganella morganii, MOR8445, 18 h, 35° C., read-out: MIC
How it was run: as §1

[13] = system: Proteus rettgeri CMC 84-41; conditions: Providencia rettgeri, CMC8441, 18 h, 35° C., read-out: MIC
How it was run: as §1

[14] = system: Proteus rettgeri IO 83-21; conditions: Providencia rettgeri, IO8321, 18 h, 35° C., read-out: MIC
How it was run: as §1

[15] = system: Providencia stuarti CMC 83-3; conditions: Providencia, CMC833, 18 h, 35° C., read-out: MIC
How it was run: as §1

[16] = system: Pseudomonas aeruginosa K 84-16; conditions: Pseudomonas aeruginosa, K8416, 18 h, 35° C., read-out: MIC
How it was run: as §1

[17] = system: Pseudomonas aeruginosa VGH 84-3; conditions: Pseudomonas aeruginosa, VGH843, 18 h, 35° C., read-out: MIC
How it was run: as §1

[18] = system: Pseudomonas aeruginosa VGH 84-4; conditions: Pseudomonas aeruginosa, VGH844, 18 h, 35° C., read-out: MIC
How it was run: as §1

[19] = system: Serratia marcescens CMC 83-74; conditions: Serratia marcescens, CMC8374, 18 h, 35° C., read-out: MIC
How it was run: as §1

[20] = system: Serratia marcescens IO 83-63; conditions: IO8363, 18 hours, 35° C.
How it was run: as §1

[21] = system: Serratia marcescens K 84-18; conditions: Serratia marcescens, K8418, 18 h, 35° C., read-out: MIC
How it was run: as §1

[22] = system: Staphylococcus aureus ATTC 29213; conditions: 35° C.
How it was run: as §1

[23] = system: Staphylococcus aureus CMC 83-131; conditions: Staphylococcus aureus, CMC83131, 18 h, 35° C., read-out: MIC
How it was run: as §1

[24] = system: Staphylococcus aureus Smith; conditions: Staphylococcus aureus, 18 h, 35° C., read-out: MIC
How it was run: as §1

[25] = system: Staphylococcus aureus VGH 84-45; conditions: Staphylococcus aureus, VGH8445, 18 h, 35° C., read-out: MIC
How it was run: as §1

[26] = system: Staphylococcus aureus VGH 84-47; conditions: Staphylococcus aureus, VGH8447, 18 h, 35° C., read-out: MIC
How it was run: as §1

[27] = system: Streptococcus faecalis CMC 83-120; conditions: Enterococcus faecalis, CMC83120, 18 h, 35° C., read-out: MIC
How it was run: as §1

[28] = system: Streptococcus faecalis UCI 85-19; conditions: Enterococcus faecalis, UCI8519, 18 h, 35° C., read-out: MIC
How it was run: as §1

[29] = system: Streptococcus faecalis VGH 84-65; conditions: Enterococcus faecalis, VGH8465, 18 h, 35° C., read-out: MIC
How it was run: as §1

[30] = system: Streptococcus faecalis VGH 84-69; conditions: Enterococcus faecalis, VGH8469, 18 h, 35° C., read-out: MIC
How it was run: as §1

[31] = system: Escherichia coli ATCC 25922; conditions: Escherichia coli, ATCC25922, 18 h, 35° C., read-out: MIC
How it was run: as §1

[32] = Staphylococcus aureus, ATTC29213, 18 h, read-out: MIC

| MIC (Citrobacter div. K 82-24) | MIC [1] | MIC [2] | MIC [3] | MIC [4] | MIC [5] | MIC (Escherichia coli LL 311) | MIC [6] | MIC [7] | MIC [8] | MIC [9] | MIC [11] | MIC [12] | MIC [13] | MIC [14] | MIC [15] | MIC [16] | MIC [17] | MIC [18] | MIC [19] | Compound | also measured |
| --- | --- | --- | --- | --- | --- | --- | --- | --- | --- | --- | --- | --- | --- | --- | --- | --- | --- | --- | --- | --- | --- |
| 0.002 µg/mL (≈ 0.00524 µM) | 0.004 µg/mL (≈ 0.0105 µM) | 0.06 µg/mL (≈ 0.157 µM) | 0.004 µg/mL (≈ 0.0105 µM) | 0.015 µg/mL (≈ 0.0393 µM) | 0.004 µg/mL (≈ 0.0105 µM) | 0.015 µg/mL (≈ 0.0393 µM) | 0.004 µg/mL (≈ 0.0105 µM) | 0.004 µg/mL (≈ 0.0105 µM) | 0.06 µg/mL (≈ 0.157 µM) | 0.06 µg/mL (≈ 0.157 µM) | 0.008 µg/mL (≈ 0.021 µM) | 0.004 µg/mL (≈ 0.0105 µM) | 0.03 µg/mL (≈ 0.0787 µM) | 0.008 µg/mL (≈ 0.021 µM) | 4 µg/mL (≈ 10.5 µM) | 4 µg/mL (≈ 10.5 µM) | 8 µg/mL (≈ 21 µM) | 2 µg/mL (≈ 5.24 µM) | 4 µg/mL (≈ 10.5 µM) | CN1CCN(c2c(F)c(F)c3c(=O)c(C(=O)O)cn(C4CC4)c3c2F)CC1 [Example 111, 1Cyclopropyl-5,6,8-trifluoro-1,4-dihydro-7-(4-methyl-1-piperazinyl) -4-oxo-3-quinolinecarboxylic acid] | MIC [10]: 0.03 µg/mL (≈ 0.0787 µM); MIC [20]: 0.25 µg/mL (≈ 0.656 µM); MIC [21]: 0.12 µg/mL (≈ 0.315 µM); MIC [22, 32]: 0.25 µg/mL (≈ 0.656 µM); MIC [23]: 0.25 µg/mL (≈ 0.656 µM); MIC [24]: 0.25 µg/mL (≈ 0.656 µM); MIC [25]: 0.12 µg/mL (≈ 0.315 µM); MIC [26]: 0.12 µg/mL (≈ 0.315 µM); MIC [27]: 2 µg/mL (≈ 5.24 µM); MIC [28]: 4 µg/mL (≈ 10.5 µM); MIC [29]: 4 µg/mL (≈ 10.5 µM); MIC [30]: 2 µg/mL (≈ 5.24 µM) |
| 8 µg/mL (≈ 19.3 µM) | 4 µg/mL (≈ 9.67 µM) | > 16 µg/mL | 8 µg/mL (≈ 19.3 µM) | 2 µg/mL (≈ 4.84 µM) | 4 µg/mL (≈ 9.67 µM) | 2 µg/mL (≈ 4.84 µM) | 4 µg/mL (≈ 9.67 µM) | 4 µg/mL (≈ 9.67 µM) | 16 µg/mL (≈ 38.7 µM) | 16 µg/mL (≈ 38.7 µM) | 8 µg/mL (≈ 19.3 µM) | 8 µg/mL (≈ 19.3 µM) | 4 µg/mL (≈ 9.67 µM) | 16 µg/mL (≈ 38.7 µM) | > 16 µg/mL | > 16 µg/mL | > 16 µg/mL | 128 µg/mL (≈ 310 µM) | > 16 µg/mL | CCn1cc(C(=O)O)c(=O)c2cc(F)c(N3CCN(C)C(c4ccnn4C)C3)cc21 (centres unmarked) [Example 110, 1-Ethyl-6-fluoro-1,4-dihydro-7-[4-methyl-3-(1-methyl-1H-pyrazol-5-yl) -1-piperazinyl]-4-oxo-3-quinolinecarboxylic acid] | MIC [31]: 1 µg/mL (≈ 2.42 µM); MIC [20]: > 16 µg/mL; MIC [21]: 8 µg/mL (≈ 19.3 µM); MIC ([22]; 18 hours): 1 µg/mL (≈ 2.42 µM); MIC [22, 32]: 0.5 µg/mL (≈ 1.21 µM); MIC [23]: 2 µg/mL (≈ 4.84 µM); MIC [24]: 0.25 µg/mL (≈ 0.605 µM); MIC [25]: 0.5 µg/mL (≈ 1.21 µM); MIC [26]: 1 µg/mL (≈ 2.42 µM); MIC [27]: 16 µg/mL (≈ 38.7 µM); MIC [28]: 8 µg/mL (≈ 19.3 µM); MIC [29]: 8 µg/mL (≈ 19.3 µM); MIC [30]: 16 µg/mL (≈ 38.7 µM) |
| > 16 µg/mL | 16 µg/mL (≈ 38.7 µM) | > 16 µg/mL | > 16 µg/mL | 16 µg/mL (≈ 38.7 µM) | > 16 µg/mL | 8 µg/mL (≈ 19.3 µM) | > 16 µg/mL | > 16 µg/mL | > 16 µg/mL | > 16 µg/mL | > 16 µg/mL | > 16 µg/mL | 32 µg/mL (≈ 77.4 µM) | > 16 µg/mL | > 16 µg/mL | > 16 µg/mL | > 16 µg/mL | > 128 µg/mL | > 16 µg/mL | CCn1cc(C(=O)O)c(=O)c2cc(F)c(N3CCN(C)C(c4ccn(C)n4)C3)cc21 (centres unmarked) [Example 109, 1-Ethyl-6-fluoro-1,4-dihydro-7-[4-methyl-3-(1-methyl-1H-pyrazol-3-yl) -1-piperazinyl]-4-oxo-3-quinolinecarboxylic acid] | MIC [31]: 8 µg/mL (≈ 19.3 µM); MIC [20]: > 16 µg/mL; MIC [21]: 32 µg/mL (≈ 77.4 µM); MIC ([22]; 18 hours): 1 µg/mL (≈ 2.42 µM); MIC [22, 32]: 0.5 µg/mL (≈ 1.21 µM); MIC [23]: 2 µg/mL (≈ 4.84 µM); MIC [24]: 0.25 µg/mL (≈ 0.605 µM); MIC [25]: 0.5 µg/mL (≈ 1.21 µM); MIC [26]: 2 µg/mL (≈ 4.84 µM); MIC [27]: > 16 µg/mL; MIC [28]: 16 µg/mL (≈ 38.7 µM); MIC [29]: 16 µg/mL (≈ 38.7 µM); MIC [30]: > 16 µg/mL |
